Values of other authors as cited in patent US7214387B2, “Sustained release formulations of metformin” (Penwest Pharmaceuticals Company, priority 2002, dated 2007).

System: serum lipids

CN(C)C(=N)NC(=N)N [metformin, N,N-dimethylimidodicarbonimidicdiamide]
effects on other lipid levels (clinical studies): no adverse effects | mean fasting serum triglycerides, total cholesterol, and LDL cholesterol levels (particularly when baseline lipid levels were abnormally elevated): lowered
